Target: T1, InvD1L (invertebrate specific D1-like dopamine receptor) (Ixodes scapularis, UniProt A0ACM8DGL0)
T1 sequence (A0ACM8DGL0 1-457): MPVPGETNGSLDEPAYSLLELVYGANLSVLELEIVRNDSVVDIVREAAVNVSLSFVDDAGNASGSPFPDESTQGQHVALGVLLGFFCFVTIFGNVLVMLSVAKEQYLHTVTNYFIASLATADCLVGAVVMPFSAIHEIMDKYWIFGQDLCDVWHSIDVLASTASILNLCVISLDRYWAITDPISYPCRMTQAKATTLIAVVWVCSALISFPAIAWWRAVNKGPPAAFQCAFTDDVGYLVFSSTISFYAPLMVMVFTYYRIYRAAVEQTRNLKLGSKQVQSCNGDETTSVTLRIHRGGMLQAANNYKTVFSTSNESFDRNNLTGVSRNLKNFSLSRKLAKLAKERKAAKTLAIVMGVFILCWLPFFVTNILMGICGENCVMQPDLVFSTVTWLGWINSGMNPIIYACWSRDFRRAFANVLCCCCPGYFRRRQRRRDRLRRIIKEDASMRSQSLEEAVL
Experiment: cell-based

## NCCc1ccc(O)c(O)c1 [DA, dopamine]
  EC50: 1.34 µM
